# Reference: patent US7598418B2, “Amide derivatives” (Institute of Medicinal Molecular Design, Inc., priority 2002, dated 2009)
# System: Jurkat cells
# Test: Jurkat cell proliferation, MTS method: compound alone or combined with bleomycin
# Format: cell-based
# Set-up: key: ┌++┘ indicates observation of remarkable enhancement; ┌+┘ indicates moderated enhancement
# Settings: compound plus bleomycin 5 μg/ml or 10 μg/ml, 36 hours, survival rate vs DMSO control
# Description: By using aforementioned synthetic compounds, effects on proliferation of Jurkat cells by sole administration and inhibitory effects on cell proliferation by administration in combination with bleomycin were examined. Materials and methods are as follows. Jurkat cells obtained from Dainippon Pharmaceutical Co. Ltd. were inoculated at about 10,000 cells per well in a 96 well culture plate, and incubated in 10% bovine fetal serum (Irvine Scientific) supplemented with RPMI1640 (ICN) medium in 5% CO2 incubator at 37° C. […] 36 hours after the incubation, the number of living cells was counted by the MTS method.
# More specifically, 20 μl of CellTiter96™ AQueous One Solution (Promega) was added per one well, and after the cells were incubated for additional one hour, an absorbance at 490 nm was measured by using a microplate reader. The same culture added with DMSO as a solvent at final concentration of 0.25% was used as a control. The number of cells in the control was considered as 100% survival rate, and for each compound, survival rates by sole administration or a combined administration were calculated. […] In the table, ┌++┘ indicates observation of remarkable enhancement, ┌+┘ indicates moderated enhancement.
row,SMILES,Activity (enhancement of inhibitory effect on cell proliferation in combination with bleomycin)
1,"CC(C)(C)c1ccc(CNS(=O)(=O)c2cccc3c(O)cccc23)cc1 [Compound 2-7, N-[4-(tert-Butyl)benzyl]-5-hydroxynaphthalene-i-sulfonamide]",++
2,"Cc1ccc(S(=O)(=O)Oc2cccc3c(S(=O)(=O)Nc4ccccc4)cccc23)cc1 [Compound 1-24, N-Phenyl-5-{[(4-methylphenyl)sulfonyl]oxy}naphthalene-1-sulfonamide]",++
3,"CC(=O)Oc1cccc2cc(S(=O)(=O)NCc3ccccc3)ccc12 [Compound 3-1, 5-Acetyloxy-N-benzylnaphthalene-2-sulfonamide]",+
4,"O=S(=O)(NCc1ccccc1)c1ccc2c(O)cccc2c1 [Compound 4-1, N-Benzyl-5-hydroxynaphthalene-2-sulfonamide]",+
5,"Cc1ccc(S(=O)(=O)Oc2cccc3c(S(=O)(=O)NCc4ccccc4)cccc23)cc1 [Compound 1-1, N-Benzyl-5-{[(4-methylphenyl)sulfonyl]oxy}naphthalene-1-sulfonamide]",++
6,"Nc1cccc(CNS(=O)(=O)c2ccc3c(O)cccc3c2)c1 [Compound 4-7, N-(3-Aminobenzyl)-5-hydroxynaphthalene-2-sulfonamide]",+
7,"CC(C)(C)c1ccc(CNS(=O)(=O)c2cccc3cc(N)ccc23)cc1 [Compound 8-2, 6-Amino-N-[4-(tert-butyl)benzyl]naphthalene-1-sulfonamide]",+
8,"Cc1ccc(S(=O)(=O)Oc2cccc3c(S(=O)(=O)NCCc4ccccc4)cccc23)cc1 [Compound 1-25, N-(2-Phenethyl)-5-{[(4-methylphenyl)sulfonyl]oxy}naphthalene-1-sulfonamide]",+
9,"Cc1ccc(S(=O)(=O)Oc2cccc3c(S(=O)(=O)NCc4ccc(C(C)(C)C)cc4)cccc23)cc1 [Compound 1-7, N-[4-(tert-Butyl)benzyl]-5-{[(4-methylphenyl)sulfonyl]oxy}naphthalene-1-sulfonamide]",++
10,"CC(C)(C)c1ccc(CNS(=O)(=O)c2ccc3c(O)cccc3c2)cc1 [Compound 4-4, N-[4-(tert-Butyl)benzyl]-5-hydroxynaphthalene-2-sulfonamide]",++
11,"CC(=O)Oc1cccc2cc(S(=O)(=O)NCc3ccc(C(F)(F)F)cc3)ccc12 [Compound 3-5, 5-Acetyloxy-N-[4-(trifluoromethyl)benzyl]naphthalene-2-sulfonamide]",+
12,"Nc1cccc2c(C(=O)NCc3ccccc3)cccc12 [Compound 11-1, 5-Amino-N-benzylnaphthalene-1-carboxamide]",+
13,"COc1cccc(CNS(=O)(=O)c2cccc3c(OS(=O)(=O)c4ccc(C)cc4)cccc23)c1OC [Compound 1-13, N-(2,3-Dimethoxybenzyl)-5-{[(4-methylphenyl)sulfonyl]oxy}naphthalene-1-sulfonamide]",+
14,"COc1cccc(CNS(=O)(=O)c2ccc3c(N)cccc3c2)c1OC [Compound 6-3, 5-Amino-N-(2,3-dimethoxybenzyl)naphthalene-2-sulfonamide]",+
15,"Cc1ccc(S(=O)(=O)Oc2cccc3c(S(=O)(=O)NCc4c(F)cccc4F)cccc23)cc1 [Compound 1-2, N-(2,6-Difluorobenzyl)-5-{[(4-methylphenyl)sulfonyl]oxy}naphthalene-1-sulfonamide]",+
16,"O=S(=O)(NCCc1ccccc1)c1cccc2c(O)cccc12 [Compound 2-25, N-(2-Phenethyl)-5-hydroxynaphthalene-1-sulfonamide]",+
17,"O=S(=O)(NCc1ccc(Cl)cc1Cl)c1cccc2c(O)cccc12 [Compound 2-3, N-(2,4-Dichlorobenzyl)-5-hydroxynaphthalene-1-sulfonamide]",++
18,"Cc1ccc(S(=O)(=O)Oc2cccc3c(S(=O)(=O)NCc4ccc(N(C)C)cc4)cccc23)cc1 [Compound 1-17, N-[4-(Dimethylamino)benzyl]-5-{[(4-methylphenyl)sulfonyl]oxy}naphthalene-1-sulfonamide]",++
19,"Cc1ccc(S(=O)(=O)Oc2cccc3c(S(=O)(=O)NCc4ccc(C(F)(F)F)cc4)cccc23)cc1 [Compound 1-9, N-[4-(Trifluoromethyl)benzyl]-5-{[(4-methylphenyl)sulfonyl]oxy}naphthalene-1-sulfonamide]",++
20,"COc1ccccc1CNS(=O)(=O)c1cccc2c(O)cccc12 [Compound 2-11, N-(2-Methoxylbenzyl)-5-hydroxynaphthalene-1-sulfonamide]",+
21,"CC(=O)Oc1cccc2cc(S(=O)(=O)NCc3ccc(C(C)(C)C)cc3)ccc12 [Compound 3-4, 5-Acetyloxy-N-[4-(tert-butyl)benzyl]naphthalene-2-sulfonamide]",++
22,"Cc1ccc(S(=O)(=O)Oc2cccc3c(S(=O)(=O)NC(C)c4ccccc4)cccc23)cc1 (stereo not drawn) [Compound 1-26, N-(1-Phenethyl)-5-{[(4-methylphenyl)sulfonyl]oxy}naphthalene-1-sulfonamide]",++
23,"Cc1ccc(S(=O)(=O)Oc2cccc3c(S(=O)(=O)NCc4ccc([N+](=O)[O-])cc4)cccc23)cc1 [Compound 1-5, N-(4-Nitrobenzyl)-5-{[(4-methylphenyl)sulfonyl]oxy}naphthalene-1-sulfonamide]",++
24,"Cc1ccc(S(=O)(=O)Oc2cccc3c(S(=O)(=O)NCC4CCCCC4)cccc23)cc1 [Compound 1-23, N-Cyclohexylmethyl-5-{[(4-methylphenyl)sulfonyl]oxy}naphthalene-1-sulfonamide]",+
25,"O=S(=O)(NCc1ccc(C(F)(F)F)cc1)c1ccc2c(O)cccc2c1 [Compound 4-5, N-[4-(Trifluoromethyl)benzyl]-5-hydroxynaphthalene-2-sulfonamide]",+
26,"COc1cccc(CNS(=O)(=O)c2ccc3c(O)cccc3c2)c1OC [Compound 4-6, N-(2,3-Dimethoxybenzyl)-5-hydroxynaphthalene-2-sulfonamide]",+
27,"O=S(=O)(NCc1ccc(C(F)(F)F)cc1)c1cccc2c(O)cccc12 [Compound 2-9, N-[4-(Trifluoromethyl)benzyl]-5-hydroxynaphthalene-1-sulfonamide]",+
28,"Cc1ccc(S(=O)(=O)Oc2cccc3c(S(=O)(=O)NCc4ccc5c(c4)OCO5)cccc23)cc1 [Compound 1-15, N-(3,4-Methylenedioxybenzyl)-5-{[(4-methylphenyl)sulfonyl]oxy}naphthalene-1-sulfonamide]",+
29,"O=S(=O)(NCCc1ccccc1)c1ccc2c(O)cccc2c1 [Compound 4-13, N-(2-Phenethyl)-5-hydroxynaphthalene-2-sulfonamide]",+
30,"Cc1ccc(S(=O)(=O)Oc2cccc3c(S(=O)(=O)NCc4ccccc4C)cccc23)cc1 [Compound 1-6, N-(2-Methylbenzyl)-5-{[(4-methylphenyl)sulfonyl]oxy}naphthalene-1-sulfonamide]",++
